Laboratory results from paper PMC3048538, “Differences in the mannose oligomer specificities of the closely related lectins from Galanthus nivalis and Zea mays strongly determine their eventual anti-HIV activity” (Retrovirology, 2011).
“Also recorded” adds a separate entry of the source.

Columns and labels:
[1] = target: immobilized GNA (Galanthus nivalis, UniProt P30617); assay: SPR steady-state affinity of oligosaccharides with immobilized GNA; details: apparent, N.D. = not detectable, no binding curves
Description: (§1) The experimental data were fit using the steady-state affinity model (Biacore T100 Evaluation software 2.0.2) to determine the apparent KD-values.
(§2) The apparent KD was calculated by steady-state affinity analysis (Table 6).

[2] = target: immobilized GNAmaize; assay: SPR steady-state affinity of oligosaccharides with immobilized GNAmaize; set-up: species or system Zea mays; details: apparent, N.D. = not detectable, binding detected = KD could not be determined
Description: as §1, §2

[3] = test system: HIV-1(IIIB); assay: Antiretrovirus assay, HIV-1(IIIB)-induced cytopathicity (syncytium formation) in CEM cell cultures; assay type: cell-based; details: inhibit virus-induced cytopathicity in CEM cell cultures by 50%
Description: (§3) CEM cells (5 × 10^5 cells per ml) were suspended in fresh culture medium and infected with HIV-1 and HIV-2 at 100 times the CCID50 (50% cell culture infective doses) per ml of cell suspension, of which 100 μl was mixed with 100 μl of the appropriate dilutions of the test compounds, and further incubated at 37°C. After 4 to 5 days, syncytia formation was recorded microscopically in the cell cultures. The 50% effective concentration (EC50) corresponds to the compound concentration required to prevent syncytium formation by 50% in the virus-infected CEM cell cultures.

[4] = test system: HIV-2(ROD); assay: Antiretrovirus assay, HIV-2(ROD)-induced cytopathicity (syncytium formation) in CEM cell cultures; assay type: cell-based; details: inhibit virus-induced cytopathicity in CEM cell cultures by 50%
Description: as §3

[5] = test system: syncytia formation between HuT-78/HIV-1 and Sup-T1 cells; assay: Co-cultivation assay between Sup-T1 and persistently HIV-1-infected HuT-78 cells (syncytia formation); assay type: cell-based, Human; details: inhibit syncytia formation between HuT-78/HIV-1 and Sup-T1 cells by 50%
Description: Persistently HIV-1(IIIB)-infected HuT-78 cells (designated HuT-78/HIV-1) were washed to remove cell-free virus from the culture medium, and 5 × 10^4 cells (50 μl) were transferred to 96-well microtiter plates. Next, a similar amount of Sup-T1 cells (50 μl) and appropriate concentrations of test compound (100 μl), were added to each well.

[6] = test system: HIV-1 UG273 (clade A, R5); assay: p24 production in HIV-infected PBMC, clinical isolate UG273; assay type: cell-based; details: inhibit p24 production of HIV-infected PBMC
Description: (§4) Buffy coat preparations from healthy donors were obtained from the Blood Bank in Leuven. Peripheral blood mononuclear cells (PBMC) were isolated by density gradient centrifugation over Lymphoprep (density = 1.077 g/ml; Nycomed, Oslo, Norway). The PBMC were transferred to RPMI 1640 medium supplemented with 10% fetal calf serum (BioWhittaker Europe) and 2 mM L-glutamine and then stimulated for 3 days with phytohemagglutinin (PHA; Murex Biotech Limited, Dartford, United Kingdom) at 2 μg/ml. […] Supernatant was collected at days 8 to 10, and HIV-1 core antigen in the culture supernatant was analyzed by the p24 core antigen enzyme-linked immunosorbent assay (ELISA; DuPont-Merck Pharmaceutical Co., Wilmington, Del.).

[7] = test system: HIV-1(BaL) (Clade B); assay: p24 production in HIV-infected PBMC, BaL; assay type: cell-based; details: inhibit p24 production of HIV-infected PBMC
Description: as §4

[8] = test system: HIV-1 DJ259 (clade C, R5); assay: p24 production in HIV-infected PBMC, clinical isolate DJ259; assay type: cell-based; details: inhibit p24 production of HIV-infected PBMC
Description: as §4

[9] = test system: HIV-1 ID12 (clade A/E, R5); assay: p24 production in HIV-infected PBMC, clinical isolate ID12; assay type: cell-based; details: inhibit p24 production of HIV-infected PBMC
Description: as §4

[10] = test system: DC-SIGN-mediated capture of HIV-1(IIIB) by Raji/DC-SIGN cells; assay: Capture of HIV-1(IIIB) by Raji/DC-SIGN cells (p24 Ag ELISA); assay type: cell-based; details: HIV-1(IIIB) capture by Raji/DC-SIGN cells
Description: (§5) The experiment was performed as described previously. Briefly, B-lymphocyte DC-SIGN-expressing (Raji/DC-SIGN) cells were suspended in cell culture medium at 2 × 10^6 cells/ml. 100 μl of HIV-1(IIIB) (~250,000 pg p24) were added in the presence of 400 μl of serial dilutions of the test compounds. After 60 minutes of incubation, the cells were carefully washed 3 times to remove unbound virions and resuspended in 1 ml of cell culture medium. The captured HIV-1(IIIB) was quantified by a p24 Ag ELISA. From the Raji/DC-SIGN cell suspension, 200 μl were also added to the wells of a 48-well microtiter plate in the presence of 800 μl uninfected C8166 cells (2.5 × 10^5 cells/ml). These cocultures were further incubated at 37°C, and syncytia formation was evaluated microscopically after ~ 18 to 42 h, and viral p24 Ag determination in the culture supernatants was performed.
(§6) One hour later, free virus particles and the test compounds were carefully removed from the cell cultures by several washing steps.

[11] = test system: transmission of DC-SIGN-captured HIV-1(IIIB) to CD4+ T-lymphocyte C8166 cells; assay: Transmission of DC-SIGN-captured HIV-1(IIIB) to C8166 cells (syncytia formation); assay type: cell-based; details: transmission of DC-SIGN-captured virions to CD4+ T cells (C8166)
Description: as §5, §6

Chain of immobilized GNA (P30617 24-128): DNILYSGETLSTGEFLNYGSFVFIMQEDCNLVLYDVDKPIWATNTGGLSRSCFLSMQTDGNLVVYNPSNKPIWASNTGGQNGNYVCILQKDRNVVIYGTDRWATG

With `OC[C@H]1O[C@H](O[C@@H]2[C@@H](O[C@@H]3C(O)O[C@H](CO)[C@@H](O)[C@@H]3O)O[C@H](CO)[C@@H](O)[C@@H]2O)[C@@H](O)[C@@H](O)[C@@H]1O` (stereo partly drawn) [(α1,2-man)3] as the compound, how does the Kd [1] read?
The Kd was greater than 1000 µM.

What about the “KD, immobilized GNAmaize” value [2] of the same compound?
The value was “did not bind”.

What does the source list for `CC(=O)N[C@H]1[C@H](O[C@H]2[C@H](O)[C@@H](NC(C)=O)C(O)O[C@@H]2CO)O[C@H](CO)[C@@H](O[C@@H]2O[C@H](CO[C@H]3O[C@H](CO)[C@@H](O)[C@H](O)[C@@H]3O[C@@H]3O[C@H](CO)[C@@H](O)[C@H](O)[C@H]3NC(C)=O)[C@@H](O)[C@H](O[C@H]3O[C@H](CO)[C@@H](O)[C@H](O)[C@@H]3O[C@@H]3O[C@H](CO)[C@@H](O)[C@H](O)[C@H]3NC(C)=O)[C@@H]2O)[C@@H]1O` (some centres unmarked) [GlcNAcβ1,2Manα1,3(GlcNAcβ1,2Manα1,6)Manβ1,4GlcNAcβ1,4GlcNAc]?
KD, immobilized GNA [1]: not to GNA; KD, immobilized GNAmaize [2]: binding detected^b; KD, immobilized GNAmaize ([2]; listed as GlcNAcβ1,2Manα1,3(GlcNAcβ1,2Manα1,6) Manβ1,4GlcNAcβ1,4GlcNAc): able to bind

What does the source list for `OC[C@H]1O[C@H](O[C@H]2[C@H](O)[C@@H](CO)OC(O)[C@H]2O)[C@@H](O)[C@@H](O)[C@@H]1O` (stereo partly drawn) [(α1,3-man)2]?
KD, immobilized GNA [1]: preferentially bind; Kd [1]: > 2000 µM; KD, immobilized GNAmaize [2]: did not bind

How did the EC50 [3] turn out when “GNA: mannose-specific tetrameric plant lectin of 50 kDa from snowdrop (Galanthus nivalis) bulbs” was run?
Its EC50 is 0.007 ± 0.001 µM.

And the EC50 [4]?
The EC50 was 0.008 ± 0.001 µM.

What about the EC50 [5] of the same compound?
The EC50 was 0.062 ± 0.064 µM.

And the EC50 [6]?
Its EC50 is 0.046 µM.

What about the EC50 [7] of the same compound?
The EC50 was 0.13 µM.

What about the EC50 [8] of the same compound?
Its EC50 is 0.84 µM.

And the “EC50 Clade A/E, ID12” value [9]?
Its value is 0.38 µM.

And the EC50 [10]?
The EC50 was 0.04 ± 0.01 µM.

And the EC50 [11]?
The EC50 was 0.006 ± 0.005 µM.

How did the “KD, immobilized GNA” value [1] turn out when `CC(=O)N[C@H]1[C@H](O[C@@H]2C(O)O[C@H](CO)[C@@H](O)[C@@H]2O)O[C@H](CO)[C@@H](O)[C@@H]1O` (some centres unmarked) [GlcNAcβ1,2Man, GlcNAcß1,2Man] was run?
The value was “didn't bind; also recorded: not to GNA”.

And the “KD, immobilized GNAmaize” value [2]?
Its value is “binding detected^b”.

What about the “KD, immobilized GNAmaize” value ([2]; listed as GlcNAcß1,2Man) of the same compound?
Its value is “able to measurably bind”.
